Values joined by “and” are separate entries in the source; they are usually repeats but may differ in a detail not shown here. Equal entries are not always repeated. ± gives the expanded uncertainty stated by the source.
Assay: molar heat capacity at constant pressure
Settings: 101.33 kPa, Crystal

O=P([O-])([O-])[O-].[Er+3] [erbium phosphate]
Settings	molar heat capacity at constant pressure
2 K, Drop calorimetry	0.189 ± 0.006 J/K/mol
2.05 K, Relaxation Calorimetry	0.1821 ± 0.0026 J/K/mol
2.06 K, Relaxation Calorimetry	0.1815 ± 0.0028 J/K/mol
2.15 K, Relaxation Calorimetry	0.169 ± 0.0025 J/K/mol and 0.1693 ± 0.0025 J/K/mol
2.23 K, Relaxation Calorimetry	0.1585 ± 0.0023 J/K/mol
2.24 K, Relaxation Calorimetry	0.1587 ± 0.0023 J/K/mol
2.33 K, Relaxation Calorimetry	0.1486 ± 0.002 J/K/mol and 0.1492 ± 0.002 J/K/mol
2.42 K, Relaxation Calorimetry	0.1398 ± 0.0019 J/K/mol
2.52 K, Relaxation Calorimetry	0.1308 ± 0.0017 J/K/mol and 0.1303 ± 0.0017 J/K/mol
2.62 K, Relaxation Calorimetry	0.1226 ± 0.0015 J/K/mol
2.63 K, Relaxation Calorimetry	0.1216 ± 0.0015 J/K/mol
2.73 K, Relaxation Calorimetry	0.1149 ± 0.0013 J/K/mol
2.74 K, Relaxation Calorimetry	0.1147 ± 0.0013 J/K/mol
2.84 K, Relaxation Calorimetry	0.1079 ± 0.0012 J/K/mol
2.85 K, Relaxation Calorimetry	0.1075 ± 0.0012 J/K/mol
2.96 K, Relaxation Calorimetry	0.1012 ± 0.0011 J/K/mol
2.97 K, Relaxation Calorimetry	0.101 ± 0.0011 J/K/mol
3 K, Drop calorimetry	0.0991 ± 0.0045 J/K/mol
3.08 K, Relaxation Calorimetry	0.09512 ± 0.00093 J/K/mol
3.09 K, Relaxation Calorimetry	0.095 ± 0.0009 J/K/mol
3.21 K, Relaxation Calorimetry	0.08975 ± 0.00078 J/K/mol
3.22 K, Relaxation Calorimetry	0.0889 ± 0.0008 J/K/mol
3.34 K, Relaxation Calorimetry	0.08523 ± 0.00059 J/K/mol
3.35 K, Relaxation Calorimetry	0.0846 ± 0.0006 J/K/mol
3.48 K, Relaxation Calorimetry	0.08127 ± 0.00047 J/K/mol and 0.0813 ± 0.0005 J/K/mol
3.62 K, Relaxation Calorimetry	0.07825 ± 0.00036 J/K/mol
3.64 K, Relaxation Calorimetry	0.0777 ± 0.0004 J/K/mol
3.77 K, Relaxation Calorimetry	0.07611 ± 0.00016 J/K/mol and 0.0763 ± 0.0002 J/K/mol
3.93 K, Relaxation Calorimetry	0.0754 ± 0.0001 J/K/mol
4 K, Drop calorimetry	0.0755 ± 0.006 J/K/mol
4.1 K, Relaxation Calorimetry	0.07633 ± 0.00023 J/K/mol and 0.0764 ± 0.0002 J/K/mol
4.27 K, Relaxation Calorimetry	0.07937 ± 0.0005 J/K/mol and 0.079 ± 0.0005 J/K/mol
4.44 K, Relaxation Calorimetry	0.08477 ± 0.00078 J/K/mol
4.45 K, Relaxation Calorimetry	0.0843 ± 0.0008 J/K/mol
4.62 K, Relaxation Calorimetry	0.09293 ± 0.0011 J/K/mol
4.63 K, Relaxation Calorimetry	0.0925 ± 0.0011 J/K/mol
4.82 K, Relaxation Calorimetry	0.1048 ± 0.0015 J/K/mol and 0.1045 ± 0.0015 J/K/mol
5.02 K, Relaxation Calorimetry	0.1211 ± 0.0019 J/K/mol and 0.1208 ± 0.0019 J/K/mol
5.22 K, Relaxation Calorimetry	0.1421 ± 0.0023 J/K/mol and 0.142 ± 0.0023 J/K/mol
5.44 K, Relaxation Calorimetry	0.1701 ± 0.0028 J/K/mol and 0.1698 ± 0.0028 J/K/mol
5.67 K, Relaxation Calorimetry	0.2055 ± 0.0034 J/K/mol and 0.2049 ± 0.0034 J/K/mol
5.91 K, Relaxation Calorimetry	0.2491 ± 0.0041 J/K/mol and 0.2489 ± 0.0041 J/K/mol
6 K, Drop calorimetry	0.268 ± 0.01 J/K/mol
6.15 K, Relaxation Calorimetry	0.3031 ± 0.0047 J/K/mol and 0.3029 ± 0.0047 J/K/mol
6.41 K, Relaxation Calorimetry	0.3662 ± 0.0053 J/K/mol and 0.3497 ± 0.0053 J/K/mol
6.67 K, Relaxation Calorimetry	0.4408 ± 0.0062 J/K/mol
6.68 K, Relaxation Calorimetry	0.4451 ± 0.0062 J/K/mol
6.96 K, Relaxation Calorimetry	0.5353 ± 0.0069 J/K/mol and 0.5363 ± 0.0069 J/K/mol
7.24 K, Relaxation Calorimetry	0.6377 ± 0.0076 J/K/mol
7.25 K, Relaxation Calorimetry	0.6369 ± 0.0076 J/K/mol
7.55 K, Relaxation Calorimetry	0.7594 ± 0.0083 J/K/mol and 0.7584 ± 0.0083 J/K/mol
7.87 K, Relaxation Calorimetry	0.893 ± 0.0089 J/K/mol and 0.8931 ± 0.0089 J/K/mol
8 K, Drop calorimetry	0.956 ± 0.03 J/K/mol
8.2 K, Relaxation Calorimetry	1.047 ± 0.01 J/K/mol and 1.049 ± 0.01 J/K/mol
8.54 K, Relaxation Calorimetry	1.218 ± 0.01 J/K/mol
8.56 K, Vacuum adiabatic calorimetry	1.262 ± 0.023 J/K/mol
8.9 K, Relaxation Calorimetry	1.407 ± 0.011 J/K/mol and 1.404 ± 0.011 J/K/mol
9.19 K, Vacuum adiabatic calorimetry	1.587 ± 0.025 J/K/mol
9.27 K, Relaxation Calorimetry	1.607 ± 0.011 J/K/mol and 1.604 ± 0.011 J/K/mol
9.65 K, Relaxation Calorimetry	1.831 ± 0.012 J/K/mol
9.84 K, Vacuum adiabatic calorimetry	1.971 ± 0.028 J/K/mol
10 K, Drop calorimetry	2.222 ± 0.067 J/K/mol
10.05 K, Relaxation Calorimetry	2.057 ± 0.013 J/K/mol and 2.046 ± 0.012 J/K/mol
10.26 K, Relaxation Calorimetry	2.218 ± 0.015 J/K/mol
10.52 K, Vacuum adiabatic calorimetry	2.384 ± 0.031 J/K/mol
10.53 K, Relaxation Calorimetry	2.408 ± 0.012 J/K/mol
10.66 K, Relaxation Calorimetry	2.462 ± 0.012 J/K/mol
10.91 K, Relaxation Calorimetry	2.636 ± 0.012 J/K/mol
11.1 K, Relaxation Calorimetry	2.733 ± 0.012 J/K/mol
11.21 K, Vacuum adiabatic calorimetry	2.814 ± 0.034 J/K/mol
11.35 K, Relaxation Calorimetry	2.908 ± 0.012 J/K/mol
11.56 K, Relaxation Calorimetry	3.016 ± 0.012 J/K/mol
11.81 K, Relaxation Calorimetry	3.191 ± 0.012 J/K/mol
11.92 K, Vacuum adiabatic calorimetry	3.253 ± 0.036 J/K/mol
12.04 K, Relaxation Calorimetry	3.31 ± 0.012 J/K/mol
12.29 K, Relaxation Calorimetry	3.486 ± 0.013 J/K/mol
12.53 K, Relaxation Calorimetry	3.616 ± 0.012 J/K/mol
12.64 K, Vacuum adiabatic calorimetry	3.701 ± 0.039 J/K/mol
12.78 K, Relaxation Calorimetry	3.791 ± 0.012 J/K/mol
13.05 K, Relaxation Calorimetry	3.929 ± 0.012 J/K/mol
13.3 K, Relaxation Calorimetry	4.098 ± 0.012 J/K/mol
13.37 K, Vacuum adiabatic calorimetry	4.111 ± 0.041 J/K/mol
13.59 K, Relaxation Calorimetry	4.242 ± 0.011 J/K/mol
13.84 K, Relaxation Calorimetry	4.403 ± 0.011 J/K/mol
14.12 K, Vacuum adiabatic calorimetry	4.51 ± 0.042 J/K/mol
14.15 K, Relaxation Calorimetry	4.549 ± 0.011 J/K/mol
14.41 K, Relaxation Calorimetry	4.708 ± 0.011 J/K/mol
14.74 K, Relaxation Calorimetry	4.863 ± 0.011 J/K/mol
14.88 K, Vacuum adiabatic calorimetry	4.899 ± 0.044 J/K/mol
14.99 K, Relaxation Calorimetry	5.019 ± 0.01 J/K/mol
15 K, Drop calorimetry	4.903 ± 0.15 J/K/mol
15.35 K, Relaxation Calorimetry	5.181 ± 0.01 J/K/mol
15.6 K, Relaxation Calorimetry	5.328 ± 0.009 J/K/mol
15.65 K, Vacuum adiabatic calorimetry	5.247 ± 0.045 J/K/mol
15.99 K, Relaxation Calorimetry	5.488 ± 0.009 J/K/mol
16.24 K, Relaxation Calorimetry	5.627 ± 0.009 J/K/mol
16.43 K, Vacuum adiabatic calorimetry	5.599 ± 0.047 J/K/mol
16.65 K, Relaxation Calorimetry	5.792 ± 0.009 J/K/mol
16.91 K, Relaxation Calorimetry	5.923 ± 0.008 J/K/mol
17.21 K, Vacuum adiabatic calorimetry	5.933 ± 0.048 J/K/mol
17.34 K, Relaxation Calorimetry	6.085 ± 0.008 J/K/mol
17.6 K, Relaxation Calorimetry	6.206 ± 0.008 J/K/mol
18 K, Vacuum adiabatic calorimetry	6.247 ± 0.048 J/K/mol
18.06 K, Relaxation Calorimetry	6.369 ± 0.008 J/K/mol
18.32 K, Relaxation Calorimetry	6.493 ± 0.008 J/K/mol
18.8 K, Vacuum adiabatic calorimetry	6.533 ± 0.049 J/K/mol
18.81 K, Relaxation Calorimetry	6.67 ± 0.007 J/K/mol
19.07 K, Relaxation Calorimetry	6.774 ± 0.007 J/K/mol
19.59 K, Vacuum adiabatic calorimetry	6.837 ± 0.049 J/K/mol
19.6 K, Relaxation Calorimetry	6.935 ± 0.007 J/K/mol
19.85 K, Relaxation Calorimetry	7.052 ± 0.007 J/K/mol
20 K, Drop calorimetry	6.881 ± 0.21 J/K/mol
20.41 K, Relaxation Calorimetry	7.222 ± 0.007 J/K/mol
20.67 K, Relaxation Calorimetry	7.329 ± 0.006 J/K/mol
20.84 K, Vacuum adiabatic calorimetry	7.265 ± 0.05 J/K/mol
21.26 K, Relaxation Calorimetry	7.493 ± 0.006 J/K/mol
21.52 K, Relaxation Calorimetry	7.59 ± 0.006 J/K/mol
22.14 K, Relaxation Calorimetry	7.771 ± 0.006 J/K/mol
22.39 K, Vacuum adiabatic calorimetry	7.793 ± 0.05 J/K/mol
22.4 K, Relaxation Calorimetry	7.869 ± 0.006 J/K/mol
23.06 K, Relaxation Calorimetry	8.068 ± 0.006 J/K/mol
23.32 K, Relaxation Calorimetry	8.163 ± 0.006 J/K/mol
23.97 K, Vacuum adiabatic calorimetry	8.29 ± 0.05 J/K/mol
24.02 K, Relaxation Calorimetry	8.364 ± 0.006 J/K/mol
24.29 K, Relaxation Calorimetry	8.456 ± 0.006 J/K/mol
25 K, Drop calorimetry	8.631 ± 0.26 J/K/mol
25.02 K, Relaxation Calorimetry	8.665 ± 0.006 J/K/mol
25.28 K, Relaxation Calorimetry	8.765 ± 0.006 J/K/mol
25.55 K, Vacuum adiabatic calorimetry	8.799 ± 0.049 J/K/mol
26.06 K, Relaxation Calorimetry	9.002 ± 0.006 J/K/mol
26.32 K, Relaxation Calorimetry	9.091 ± 0.007 J/K/mol
27.13 K, Vacuum adiabatic calorimetry	9.314 ± 0.048 J/K/mol
27.41 K, Relaxation Calorimetry	9.432 ± 0.006 J/K/mol
28.27 K, Relaxation Calorimetry	9.673 ± 0.006 J/K/mol
28.53 K, Relaxation Calorimetry	9.786 ± 0.007 J/K/mol
28.72 K, Vacuum adiabatic calorimetry	9.871 ± 0.047 J/K/mol
29.45 K, Relaxation Calorimetry	10.07 ± 0.01 J/K/mol
29.72 K, Relaxation Calorimetry	10.17 ± 0.01 J/K/mol
30 K, Drop calorimetry	10.43 ± 0.31 J/K/mol
30.31 K, Vacuum adiabatic calorimetry	10.46 ± 0.06 J/K/mol
30.68 K, Relaxation Calorimetry	10.5 ± 0.01 J/K/mol
30.95 K, Relaxation Calorimetry	10.6 ± 0.01 J/K/mol
31.9 K, Vacuum adiabatic calorimetry	11.11 ± 0.06 J/K/mol
31.97 K, Relaxation Calorimetry	10.96 ± 0.01 J/K/mol
32.22 K, Relaxation Calorimetry	11.08 ± 0.01 J/K/mol
33.31 K, Relaxation Calorimetry	11.44 ± 0.01 J/K/mol
33.49 K, Vacuum adiabatic calorimetry	11.75 ± 0.06 J/K/mol
33.56 K, Relaxation Calorimetry	11.58 ± 0.01 J/K/mol
34.69 K, Relaxation Calorimetry	11.99 ± 0.01 J/K/mol
34.95 K, Relaxation Calorimetry	12.12 ± 0.01 J/K/mol
35 K, Drop calorimetry	12.41 ± 0.37 J/K/mol
35.09 K, Vacuum adiabatic calorimetry	12.32 ± 0.07 J/K/mol
36.69 K, Vacuum adiabatic calorimetry	13.09 ± 0.07 J/K/mol
38.29 K, Vacuum adiabatic calorimetry	13.85 ± 0.07 J/K/mol
39.9 K, Vacuum adiabatic calorimetry	14.59 ± 0.07 J/K/mol
40 K, Drop calorimetry	14.63 ± 0.44 J/K/mol
41.51 K, Vacuum adiabatic calorimetry	15.35 ± 0.07 J/K/mol
43.13 K, Vacuum adiabatic calorimetry	16.12 ± 0.07 J/K/mol
44.75 K, Vacuum adiabatic calorimetry	16.95 ± 0.07 J/K/mol
45 K, Drop calorimetry	17.07 ± 0.51 J/K/mol
46.39 K, Vacuum adiabatic calorimetry	17.8 ± 0.08 J/K/mol
